Laboratory results from publication PMC11184554, “Nature-Inspired Gallinamides Are Potent Antischistosomal Agents: Inhibition of the Cathepsin B1 Protease Target and Binding Mode Analysis” (ACS Infectious Diseases, 2024).

Assays:
recombinant SmCB1 = test: Kinetic inhibition assay with recombinant SmCB1 (k2nd); assay type: biochemical, S. mansoni
Method: Gallinamide A and a series of its 18 derivatives were evaluated in vitro as inhibitors of SmCB1 to explore the binding specificities of the subsites in the enzyme’s active site. The gallinamide A inhibitor scaffold can be defined by positions P4 through P1′ (Schechter and Berger nomenclature[37]), which were assigned according to the binding mode analysis (see the crystallographic section below). The substituents R4, R1, and R1′ introduced on the scaffold (Table 2) are numbered according to the respective positions P4, P1, and P1′. The compounds’ second-order rate constants (k2nd) were determined using a kinetic inhibition assay with recombinant SmCB1 and the substrate, Cbz–Phe–Arg–AMC.
Inhibition measurements were performed in duplicate in 96-well microplates (100 μL assay volume) at 37 °C. SmCB1 (40 pM) was added to a mixture of the fluorogenic substrate Cbz–Phe–Arg–AMC (25 μM) and an inhibitor (0–100 μM) in 0.1 M sodium acetate, pH 5.5, containing 2.5 mM dithiothreitol and 0.01% (w/v) BRIJ 35. Substrate hydrolysis was monitored in an Infinite M1000 microplate reader (Tecan) at excitation and emission wavelengths of 360 and 465 nm, respectively, for up to 150 min. An observed first-order rate constant, kobs, was calculated at each inhibitor concentration by fitting the progress curve to the equation P = vi/kobs(1 – exp(−kobst)) + d where P is the product formation, t is the reaction time, vi is the initial velocity, and d is the offset. […] The second-order rate constant, k2nd, (and SE value) was determined by fitting the linear equation kobs = (k2nd[I])/(1 + [S]/Km), where [S] is the substrate concentration, [I] is the inhibitor concentration, and KM is the Michaelis–Menten constant. The KM value determined for SmCB1 was 25 μM. […] To determine IC50 values, SmCB1 (40 pM) was preincubated with the inhibitor (0–100 μM) for 30 min under assay conditions as described above, followed by the addition of the fluorogenic substrate Cbz–Phe–Arg–AMC (20 μM). Substrate hydrolysis was monitored for 30 min in a microplate reader as described above. The IC50 values were determined by nonlinear regression using GraFit software (Erithacus Software).

[1] = test system: S. mansoni newly transformed schistosomula (NTS); test: Phenotypic screen with newly transformed schistosomula (NTS); assay type: cell-based
Method: The same 19 gallinamides were screened for bioactivity against S. mansoni newly transformed schistosomula (NTS), the postinvasive parasite stage that feeds on host blood.[40] In this primary assay, the NTS were exposed to 1 and 10 μM compounds for 3 days, and the resulting phenotypic responses were graded from 0 through 4, i.e., the least to the most severe (Table 2 and Table S1). […] The effects were more pronounced after 72 h, and when the higher, 10 μM, compound concentration was used (Table S1). […] Also, compared to gallinamide A and its analogs, 3 has an additional N-terminal N-acetamide modification that further reduces bioactivity (Table 2).
Phenotypic screens employed S. mansoni newly transformed schistosomula (NTS) and adults and were carried out as described previously.[18]−[20],[42] NTS were prepared by mechanically transforming infective larvae (cercariae).[40],[42] NTS (200–300 parasites) were incubated in flat-bottomed 96-well plates in 200 μL of Basch Medium 169 containing 5% (v/v) FBS, 100 U mL^–1 penicillin and 100 μg mL^–1 streptomycin (complete Basch medium)[75] at 5% CO2 and 37 °C.[76],[77] Inhibitors were added at final concentrations of 1 and 10 μM, and changes in phenotypes were observed under an inverted microscope every 24 h for up to 72 h.
A constrained nomenclature of “descriptors”[39],[42] was used to record the multiple and dynamic changes in movement, shape, and translucence that the schistosome parasite is capable of (Table S1 for NTS and Table S3 for adults). These descriptors were then converted into an ordinal “severity score” system ranging from 0 (no effect) to 4 (maximum effect), which allows for the relative comparison of compound effects.

Q: For `CCC(C)C(C(=O)OC(CC(C)C)C(=O)NC(CC(C)C)C(=O)NC(C=CC(=O)N1C(=O)C=C(OC)C1Cc1ccccc1)Cc1ccccc1)N(C)C` (centres unmarked) [compound 18], which “decrease in inhibition vs 14” value (recombinant SmCB1; Phe in R1 changed from S to R configuration) is on record?
A: 3.4 fold

Q: And the “SmCB1 inhibition k2nd” value (recombinant SmCB1; second-order rate constant (kinact/Ki), substrate Cbz–Phe–Arg–AMC, pH 5.5, 37 °C, mean ± SE)?
A: 16.0 ± 0.2 M^–1·s^–1

Q: And the schistosomula severity score ([1]; 1 μM compound, 24 h, scale 0 (no effect) to 4 (most severe))?
A: 0

Q: What about the schistosomula severity score ([1]; 1 μM compound, 48 h, scale 0 to 4) of the same compound?
A: 0

Q: And the schistosomula severity score ([1]; 1 μM compound, 72 h, scale 0 to 4)?
A: 0

Q: And the schistosomula severity score ([1]; 10 µM compound, 24 h, scale 0 to 4)?
A: 1

Q: And the schistosomula severity score ([1]; 10 µM compound, 48 h, scale 0 to 4)?
A: 4

Q: And the schistosomula severity score ([1]; 10 µM compound, 72 h, scale 0 to 4)?
A: 4
